Experimental data: BindingDB's records for doi:10.1016/j.bmc.2014.04.036 (Amri, 2014)

target: T1, Sodium/glucose cotransporter 1 (Homo sapiens, UniProt P13866); assay: Inhibition of human SGLT1 expressed in CHOK1 cells assessed as inhibition of [14C]-AMG uptake after 3 hrs by microbeta scintillation counting analysis
T1 sequence (P13866 whole entry): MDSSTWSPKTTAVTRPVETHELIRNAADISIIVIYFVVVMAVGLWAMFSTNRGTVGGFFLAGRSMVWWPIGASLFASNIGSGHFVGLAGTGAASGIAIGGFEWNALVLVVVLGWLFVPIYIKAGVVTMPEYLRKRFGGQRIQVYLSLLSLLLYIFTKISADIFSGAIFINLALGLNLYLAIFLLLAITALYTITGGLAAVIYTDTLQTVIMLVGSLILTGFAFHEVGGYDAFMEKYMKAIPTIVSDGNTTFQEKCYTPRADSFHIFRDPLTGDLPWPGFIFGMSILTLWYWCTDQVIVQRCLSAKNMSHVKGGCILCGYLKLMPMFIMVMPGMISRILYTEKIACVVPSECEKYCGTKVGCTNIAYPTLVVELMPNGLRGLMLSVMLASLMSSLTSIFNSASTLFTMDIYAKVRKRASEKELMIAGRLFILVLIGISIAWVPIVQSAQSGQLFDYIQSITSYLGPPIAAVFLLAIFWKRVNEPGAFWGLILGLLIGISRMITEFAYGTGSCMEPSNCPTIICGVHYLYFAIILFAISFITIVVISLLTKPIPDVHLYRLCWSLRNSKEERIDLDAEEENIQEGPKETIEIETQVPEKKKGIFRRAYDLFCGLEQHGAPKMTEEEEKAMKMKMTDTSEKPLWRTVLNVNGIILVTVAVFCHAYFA

IC50 [µM]	SMILES
> 90	O=c1n(Cc2cc([C@@H]3O[C@H](CO)[C@@H](O)[C@H](O)[C@H]3O)ccc2Cl)nc2ccc(C(F)(F)F)cn12 [US8575114, I-5]
> 90	O=c1n(Cc2cc([C@@H]3O[C@H](CO)[C@@H](O)[C@H](O)[C@H]3O)ccc2Cl)nc2ccc(CO)cn12 [US8575114, I-6]
> 90	Cc1cc2nn(Cc3cc([C@@H]4O[C@H](CO)[C@@H](O)[C@H](O)[C@H]4O)ccc3Cl)c(=O)n2cc1Cl [US8575114, I-12]
